Assay results taken from ChEMBL document CHEMBL6103626, “Structure-Based Design of New LSD1/EGFRL858R/T790M Dual Inhibitors for Treating EGFR Mutant NSCLC Cancers” (J Med Chem, 2025).

Columns and labels:
[1] = Antiproliferative activity against human PC9 Gefitinib-resistant (GR) cells measured after 72 hrs by SRB assay; details: PC9 Gefitinib-resistant (GR) cell
PC-9 = test: Antiproliferative activity against human PC-9 cells expressing EGFR del19 mutant measured after 72 hrs by SRB assay; details: PC-9, 72 h
[2] = Cmax in Sprague-Dawley rat at 40 mg/kg, po measured for 24 hrs by LC-MS/MS analysis; format: ADME, organism-based; details: in vivo
[3] = Volume of distribution at steady state in Sprague-Dawley rat at 10 mg/kg, iv measured for 24 hrs by LC-MS/MS analysis; format: ADME, organism-based; details: in vivo, read-out: Vdss
[4] = molecular target: Epidermal growth factor receptor (Homo sapiens, UniProt P00533); test: Inhibition of wild-type EGFR (unknown origin) using Glu/Tyr as substrate incubated for 1 hr by ELISA
A-431 = test: Antiproliferative activity against human A-431 cells expressing wild-type EGFR measured after 72 hrs by SRB assay; details: A-431, 72 h
[5] = AUClast in Sprague-Dawley rat at 40 mg/kg, po measured for 24 hrs by LC-MS/MS analysis; format: ADME, organism-based; details: in vivo
LSD1/CoREST complex [6] = molecular target: T1, LSD1/CoREST complex (Homo sapiens, UniProt O60341); test: Inhibition of full-length recombinant LSD1 (123 to 852 residues)(unknown origin)/CoREST (305 to 482 residues)(unknown origin) extracted from Escherichia coli using H3K4me2 as substrate preincubated for 5 mins followed by substrate addition measured after 30 mins by HRP/Amplex Red based fluorescence assay; format: protein-complex assay
[7] = AUC (infinity) in Sprague-Dawley rat at 10 mg/kg, iv measured for 24 hrs by LC-MS/MS analysis; format: ADME, organism-based; details: in vivo
[8] = molecular target: Epidermal growth factor receptor (Homo sapiens, UniProt P00533, L858R/T790M); test: Inhibition of EGFR L858R/T790M mutant (unknown origin) using Glu/Tyr as substrate incubated for 1 hr by ELISA
cells = details: Homo sapiens, NCI-H1975, 72 h
NCI-H1975 = test: Antitumor activity against human NCI-H1975 cells xenografted in athymic nude BALB/c mouse at 3 mg/kg, po daily for 27 days relative to control; format: functional; details: NCI-H1975, 648 h, time 27 day, read-out: TGI
[9] = Tmax in Sprague-Dawley rat at 40 mg/kg, po measured for 24 hrs by LC-MS/MS analysis; format: ADME, organism-based; details: in vivo
[10] = Oral bioavailability in Sprague-Dawley rat at 40 mg/kg measured for 24 hrs by LC-MS/MS analysis; format: ADME, organism-based; details: in vivo
LSD1/CoREST complex [11] = molecular target: T1, LSD1/CoREST complex; test: Non-competitive inhibition of LSD1/CoREST (unknown origin) using H3K4me2 as substrate incubated for 0.5 hrs by ELISA; format: protein-complex assay
[12] = MRT (infinity) in Sprague-Dawley rat at 10 mg/kg, iv measured for 24 hrs by LC-MS/MS analysis; format: ADME, organism-based; details: in vivo
[13] = MRTlast in Sprague-Dawley rat at 40 mg/kg, po measured for 24 hrs by LC-MS/MS analysis; format: ADME, organism-based; details: in vivo
[14] = Antiproliferative activity against human PC9-OR cells measured after 72 hrs by SRB assay
[15] = Half life in Sprague-Dawley rat at 10 mg/kg, iv measured for 24 hrs by LC-MS/MS analysis; format: ADME, organism-based; details: in vivo
[16] = system: Osimertinib-resistant NCI-H1975 cell; test: Antiproliferative activity against human Osimertinib-resistant NCI-H1975 cells measured after 72 hrs by SRB assay
[17] = AUClast in Sprague-Dawley rat at 10 mg/kg, iv measured for 24 hrs by LC-MS/MS analysis; format: ADME, organism-based; details: in vivo
[18] = Toxicity in athymic nude BALB/c mouse xenografted with human NCI-H1975 cells assessed as drug tolerance at 3 mg/kg, po daily for 27 days; format: organism-based; details: in vivo, 648 h, time 27 day
[19] = Clearance in Sprague-Dawley rat at 10 mg/kg, iv measured for 24 hrs by LC-MS/MS analysis; format: ADME, organism-based; details: in vivo
[20] = Toxicity in athymic nude BALB/c mouse xenografted with human NCI-H1975 cells assessed as body weight loss at 3 mg/kg, po daily for 27 days; format: organism-based; details: in vivo, 648 h, time 27 day
[21] = MRTlast in Sprague-Dawley rat at 10 mg/kg, iv measured for 24 hrs by LC-MS/MS analysis; format: ADME, organism-based; details: in vivo
[22] = MRT (infinity) in Sprague-Dawley rat at 40 mg/kg, po measured for 24 hrs by LC-MS/MS analysis; format: ADME, organism-based; details: in vivo
[23] = Half life in Sprague-Dawley rat at 40 mg/kg, po measured for 24 hrs by LC-MS/MS analysis; format: ADME, organism-based; details: in vivo
[24] = AUC (infinity) in Sprague-Dawley rat at 40 mg/kg, po measured for 24 hrs by LC-MS/MS analysis; format: ADME, organism-based; details: in vivo

Epidermal growth factor receptor (Homo sapiens, UniProt P00533, L858R/T790M), sequence (P00533 25-1210 T790M/L858R limits assumed): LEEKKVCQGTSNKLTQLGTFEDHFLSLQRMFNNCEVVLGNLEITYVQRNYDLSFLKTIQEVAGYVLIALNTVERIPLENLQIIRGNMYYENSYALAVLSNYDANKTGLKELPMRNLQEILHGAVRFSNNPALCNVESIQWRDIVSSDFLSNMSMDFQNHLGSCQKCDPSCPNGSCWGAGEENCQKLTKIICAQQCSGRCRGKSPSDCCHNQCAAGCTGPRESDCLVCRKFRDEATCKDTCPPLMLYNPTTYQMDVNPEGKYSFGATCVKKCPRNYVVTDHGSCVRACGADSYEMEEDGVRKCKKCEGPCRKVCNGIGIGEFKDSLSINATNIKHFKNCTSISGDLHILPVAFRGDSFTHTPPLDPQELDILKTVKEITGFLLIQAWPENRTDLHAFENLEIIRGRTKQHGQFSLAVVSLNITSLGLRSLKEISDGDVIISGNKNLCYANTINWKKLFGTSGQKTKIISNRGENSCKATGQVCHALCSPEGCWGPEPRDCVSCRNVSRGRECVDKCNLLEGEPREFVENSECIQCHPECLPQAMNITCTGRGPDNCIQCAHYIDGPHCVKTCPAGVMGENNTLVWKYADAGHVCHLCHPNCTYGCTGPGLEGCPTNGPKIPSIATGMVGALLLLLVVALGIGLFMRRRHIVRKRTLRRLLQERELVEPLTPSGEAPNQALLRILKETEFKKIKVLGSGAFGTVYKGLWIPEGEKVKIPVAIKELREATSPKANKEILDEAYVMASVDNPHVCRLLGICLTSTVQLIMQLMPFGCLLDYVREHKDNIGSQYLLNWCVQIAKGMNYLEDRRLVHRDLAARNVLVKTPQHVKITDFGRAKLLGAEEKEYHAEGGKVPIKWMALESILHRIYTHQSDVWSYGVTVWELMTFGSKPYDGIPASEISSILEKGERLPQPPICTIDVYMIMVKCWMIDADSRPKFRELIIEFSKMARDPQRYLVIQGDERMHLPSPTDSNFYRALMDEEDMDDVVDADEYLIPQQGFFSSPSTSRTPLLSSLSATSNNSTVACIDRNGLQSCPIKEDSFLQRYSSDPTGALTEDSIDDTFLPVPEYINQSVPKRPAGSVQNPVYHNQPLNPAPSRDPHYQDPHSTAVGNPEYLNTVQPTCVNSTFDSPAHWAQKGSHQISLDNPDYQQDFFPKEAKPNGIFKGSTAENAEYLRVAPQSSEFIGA
Epidermal growth factor receptor (Homo sapiens, UniProt P00533), sequence (P00533 whole entry): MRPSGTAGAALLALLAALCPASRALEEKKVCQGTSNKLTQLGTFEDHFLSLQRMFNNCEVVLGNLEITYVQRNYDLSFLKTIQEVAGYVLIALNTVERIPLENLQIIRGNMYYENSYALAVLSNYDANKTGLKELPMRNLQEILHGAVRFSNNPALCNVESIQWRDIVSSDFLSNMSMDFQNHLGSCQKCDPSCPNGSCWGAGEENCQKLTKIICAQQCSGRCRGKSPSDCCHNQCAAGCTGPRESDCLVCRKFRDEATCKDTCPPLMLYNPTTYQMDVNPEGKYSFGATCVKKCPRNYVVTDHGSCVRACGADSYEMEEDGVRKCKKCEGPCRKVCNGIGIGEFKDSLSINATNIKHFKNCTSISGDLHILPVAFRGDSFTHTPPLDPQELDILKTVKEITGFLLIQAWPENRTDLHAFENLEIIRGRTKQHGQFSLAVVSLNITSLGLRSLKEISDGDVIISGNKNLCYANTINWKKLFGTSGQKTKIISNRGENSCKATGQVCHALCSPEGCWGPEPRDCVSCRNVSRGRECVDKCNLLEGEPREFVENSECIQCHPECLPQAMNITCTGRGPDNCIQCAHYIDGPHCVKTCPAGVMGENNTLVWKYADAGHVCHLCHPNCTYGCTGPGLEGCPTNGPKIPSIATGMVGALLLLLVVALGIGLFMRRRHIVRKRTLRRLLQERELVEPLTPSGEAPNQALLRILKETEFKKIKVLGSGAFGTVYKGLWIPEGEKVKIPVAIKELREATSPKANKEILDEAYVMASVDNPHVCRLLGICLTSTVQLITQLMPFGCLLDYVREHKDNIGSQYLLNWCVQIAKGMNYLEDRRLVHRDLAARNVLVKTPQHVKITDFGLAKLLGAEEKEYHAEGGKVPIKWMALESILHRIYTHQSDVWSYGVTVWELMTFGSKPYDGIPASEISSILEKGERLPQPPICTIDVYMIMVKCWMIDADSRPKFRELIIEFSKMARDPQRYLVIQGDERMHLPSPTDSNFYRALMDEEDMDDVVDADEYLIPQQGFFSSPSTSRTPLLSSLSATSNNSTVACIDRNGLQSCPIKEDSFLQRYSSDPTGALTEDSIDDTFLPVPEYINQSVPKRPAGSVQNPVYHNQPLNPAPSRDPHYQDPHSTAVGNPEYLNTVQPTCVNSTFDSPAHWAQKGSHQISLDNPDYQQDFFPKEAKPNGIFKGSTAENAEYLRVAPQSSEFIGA

| Structure (SMILES) | IC50 [1] | IC50 (PC-9) | Cmax [2] | Vd [3] | IC50 (A-431) | AUC(0-t) at 24 h [5] | IC50 (LSD1/CoREST complex [6]) | AUC(0-inf) [7] | IC50 (cells) | inhibition in vivo at 3 mg/kg (NCI-H1975) | Tmax [9] | bioavailability [10] | Ki (LSD1/CoREST complex [11]) | MRT inf [12] | MRT last at 24 h [13] | IC50 [14] | half-life [15] | IC50 [16] | AUC(0-t) at 24 h [17] | Activity [18] | other results |
| --- | --- | --- | --- | --- | --- | --- | --- | --- | --- | --- | --- | --- | --- | --- | --- | --- | --- | --- | --- | --- | --- |
| [2H]C([2H])([2H])n1cc(-c2ccnc(Nc3cc(NC(=O)C=C)c(N4CCC(C)(N)CC4)cc3OC)n2)c2ccccc21 | 1.37 µM | 0.93 µM | 568 ng/mL | 32.3 L/kg | 0.29 µM | 8840 ng·h/mL | 8 µM | 4940 ng·h/mL | 0.07 µM | 51.3% | 6 h | 59.6% | 2.34 µM | 16 h | 9.37 h | 0.85 µM | 13 h | 1.6 µM | 3740 ng·h/mL | Non-toxic | IC50 [4]: 0.788 µM; IC50 [8]: 0.0068 µM; clearance [19]: 33.8 mL/min/kg; Activity [20]: Non-toxic; MRT last at 24 h [21]: 7.17 h |
| [2H]C([2H])([2H])n1cc(-c2ccnc(Nc3cc(NC(=O)C=C)c(N4CC[C@@H](N(C)C)C4)cc3OC)n2)c2ccccc21 | 5.35 µM | 6.81 µM | 724 ng/mL | 15.5 L/kg | 2.46 µM | 10400 ng·h/mL | 0.6 µM | 4220 ng·h/mL | 1.75 µM | 60.4% | 5 h | 65.1% | 0.257 µM | 6.51 h | 6.76 h | 6.73 µM | 6.07 h | 8.93 µM | 4000 ng·h/mL | Non-toxic | MRT inf [22]: 8.14 h; half-life [23]: 6.23 h; AUC(0-inf) [24]: 9720 ng·h/mL; clearance [19]: 39.8 mL/min/kg; Activity [20]: Non-toxic; MRT last at 24 h [21]: 5.08 h |
